Experimental data published in patent publication US20230181614A1, “ADMINISTRATION OF CITICOLINE TO IMPROVE COGNITIVE PERFORMANCE, ATTENTIONAL PERFORMANCE, AND MOTOR FUNCTION” (KYOWA HAKKO BIO CO., LTD., priority 2014, published 2023).

Test system: Healthy subjects, ages 13-18
Assay: General Questionnaire
Type: in vivo, human
Settings: 250 mg/day
Text: Study participants were screened by telephone prior to study enrollment. Healthy subjects, ages 13-18, with no significant medical conditions and no history of co-morbid psychiatric disorder, current Axis I or II diagnosis, or previous participation in a pharmacotherapeutic trial, were selected. Use of any psychotropic medication or any previous head injury resulting in loss of consciousness for 5 or more minutes were used as exclusion criteria. While no participant met criteria for a neuropsychiatric disorder at enrollment, clinical assessments were still completed throughout the study to evaluate changes in mood state. In addition, self-reports of sleep habits, lifestyle, and exercise routines were also administered at baseline as well as at each study visit to assess changes in health habits during study participation. Following the completion of Visit 1 assessment, participants were given their 28-day supply of citicoline (250 mg or 500 mg) or placebo, which was randomly assigned. They were instructed to take one capsule a day every day for the next 28 days. Visit 2 occurred fourteen days after Visit 1. At Visit 2, the remaining study pills were counted and participant dosage calendars were checked to ensure compliance with the protocol. Additional neuropsychological measures and clinical assessments were administered during this visit. Participants returned for Visit 3 fourteen days later, on the 28th day of their study participation. The pill bottle and the dosage calendar were collected from each participant. Urine and blood were again obtained. Participants also participated in similar clinical and neuropsychological testing and clinical measures that were given during visit 1. The General Questionnaire and Exercise and Life Style Questionnaire are self-report questionnaires designed to assess a variety of symptoms, behaviors, and self-perceptions, including mood, complexion, exercise, food, and alcohol habits of each of the participants. The General Questionnaire was administered during each of the three study visits; the Exercise and Life Style Questionnaire was administered during each of the three study visits. The General Questionnaire included five summary categories (Vision, Depression, Attention, Sleep, and Complexion) each of which had multiple individual items. Within and between group analyses are reported below for each of the summary categories.

With C[N+](C)(C)CCOP(=O)(O)OP(=O)([O-])OC[C@H]1O[C@@H](n2ccc(N)nc2=O)[C@H](O)[C@@H]1O [citicoline, Cytidine 5′-diphosphocholine] the “Attention Total V3-V1 Difference Mean” value was -5.58, the “Complexion Total V3-V1 Difference Mean” value was -0.67 and the “Depression Total V3-V1 Difference Mean” value was -7.37. The “Sleep Total V3-V1 Difference Mean” value was -5.59, the “Vision Total V3-V1 Difference Mean” value was -2.26 and the “Attention Total V3 Mean” value (Visit 3) was 38.48. The “Complexion Total V3 Mean” value (Visit 3) was 3.96, the “Depression Total V3 Mean” value (Visit 3) was 21.04 and the “Sleep Total V3 Mean” value (Visit 3) was 18.96. The “Vision Total V3 Mean” value (Visit 3) was 6.59, the “General Questionnaire Attention Q13, Mean” value (V1 (baseline)) was 3.52 and the “General Questionnaire Attention Q14, Mean” value (V1 (baseline)) was 2.37. For the same compound, the “General Questionnaire Attention Q15, Mean” value (V1 (baseline)) was 3.89, the “General Questionnaire Attention Q16, Mean” value (V1 (baseline)) was 3.19 and the “General Questionnaire Attention Q17, Mean” value (V1 (baseline)) was 3.30. The “General Questionnaire Attention Q18, Mean” value (V1 (baseline)) was 2.63, the “General Questionnaire Attention Q19, Mean” value (V1 (baseline)) was 6.59 and the “General Questionnaire Attention Q20, Mean” value (V1 (baseline)) was 3.48. For the same compound, the “General Questionnaire Attention Q21, Mean” value (V1 (baseline)) was 3.22, the “General Questionnaire Attention Q22, Mean” value (V1 (baseline)) was 4.00 and the “General Questionnaire Attention Q23, Mean” value (V1 (baseline)) was 4.15. For the same compound, the “General Questionnaire Attention Q24, Mean” value (V1 (baseline)) was 3.67, the “General Questionnaire Attention Total, Mean” value (V1 (baseline)) was 44.31 and the “General Questionnaire Complexion Q33, Mean” value (V1 (baseline)) was 2.78. The “General Questionnaire Complexion Q34, Mean” value (V1 (baseline)) was 1.85, the “General Questionnaire Complexion Total, Mean” value (V1 (baseline)) was 4.63 and the “General Questionnaire Depression Q4, Mean” value (V1 (baseline)) was 2.59. The “General Questionnaire Depression Q5, Mean” value (V1 (baseline)) was 3.26, the “General Questionnaire Depression Q6, Mean” value (V1 (baseline)) was 2.85 and the “General Questionnaire Depression Q7, Mean” value (V1 (baseline)) was 4.26. For the same compound, the “General Questionnaire Depression Q8, Mean” value (V1 (baseline)) was 2.74, the “General Questionnaire Depression Q9, Mean” value (V1 (baseline)) was 3.74 and the “General Questionnaire Depression Q10, Mean” value (V1 (baseline)) was 2.85. The “General Questionnaire Depression Q11, Mean” value (V1 (baseline)) was 2.85, the “General Questionnaire Depression Q12, Mean” value (V1 (baseline)) was 3.26 and the “General Questionnaire Depression Total, Mean” value (V1 (baseline)) was 28.41. The “General Questionnaire Sleep Q25, Mean” value (V1 (baseline)) was 3.19, the “General Questionnaire Sleep Q26, Mean” value (V1 (baseline)) was 2.78 and the “General Questionnaire Sleep Q27, Mean” value (V1 (baseline)) was 3.26. The “General Questionnaire Sleep Q28, Mean” value (V1 (baseline)) was 3.63, the “General Questionnaire Sleep Q29, Mean” value (V1 (baseline)) was 3.48 and the “General Questionnaire Sleep Q30, Mean” value (V1 (baseline)) was 2.11. The “General Questionnaire Sleep Q31, Mean” value (V1 (baseline)) was 1.96, the “General Questionnaire Sleep Q32, Mean” value (V1 (baseline)) was 4.15 and the “General Questionnaire Sleep Total, Mean” value (V1 (baseline)) was 24.56. The “General Questionnaire Vision Q1, Mean” value (V1 (baseline)) was 3.44, the “General Questionnaire Vision Q2, Mean” value (V1 (baseline)) was 3.26 and the “General Questionnaire Vision Q3, Mean” value (V1 (baseline)) was 2.15. The “General Questionnaire Vision Total, Mean” value (V1 (baseline)) was 8.85, the “General Questionnaire Attention Q13, Mean” value (V3 (day 28)) was 2.74 and the “General Questionnaire Attention Q14, Mean” value (V3 (day 28)) was 2.48. For the same compound, the “General Questionnaire Attention Q15, Mean” value (V3 (day 28)) was 3.15, the “General Questionnaire Attention Q16, Mean” value (V3 (day 28)) was 2.63 and the “General Questionnaire Attention Q17, Mean” value (V3 (day 28)) was 2.48. For the same compound, the “General Questionnaire Attention Q18, Mean” value (V3 (day 28)) was 2.26, the “General Questionnaire Attention Q19, Mean” value (V3 (day 28)) was 6.41 and the “General Questionnaire Attention Q20, Mean” value (V3 (day 28)) was 3.22. The “General Questionnaire Attention Q21, Mean” value (V3 (day 28)) was 3.15, the “General Questionnaire Attention Q22, Mean” value (V3 (day 28)) was 3.35 and the “General Questionnaire Attention Q23, Mean” value (V3 (day 28)) was 3.70. For the same compound, the “General Questionnaire Attention Q24, Mean” value (V3 (day 28)) was 2.96, the “General Questionnaire Attention Total, Mean” value (V3 (day 28)) was 38.73 and the “General Questionnaire Complexion Q33, Mean” value (V3 (day 28)) was 2.30. For the same compound, the “General Questionnaire Complexion Q34, Mean” value (V3 (day 28)) was 1.67, the “General Questionnaire Complexion Total, Mean” value (V3 (day 28)) was 3.96 and the “General Questionnaire Depression Q4, Mean” value (V3 (day 28)) was 1.81. For the same compound, the “General Questionnaire Depression Q5, Mean” value (V3 (day 28)) was 2.30, the “General Questionnaire Depression Q6, Mean” value (V3 (day 28)) was 2.00 and the “General Questionnaire Depression Q7, Mean” value (V3 (day 28)) was 3.33. For the same compound, the “General Questionnaire Depression Q8, Mean” value (V3 (day 28)) was 1.81, the “General Questionnaire Depression Q9, Mean” value (V3 (day 28)) was 2.89 and the “General Questionnaire Depression Q10, Mean” value (V3 (day 28)) was 2.07. For the same compound, the “General Questionnaire Depression Q11, Mean” value (V3 (day 28)) was 2.15, the “General Questionnaire Depression Q12, Mean” value (V3 (day 28)) was 2.67 and the “General Questionnaire Depression Total, Mean” value (V3 (day 28)) was 21.04. For the same compound, the “General Questionnaire Sleep Q25, Mean” value (V3 (day 28)) was 2.33, the “General Questionnaire Sleep Q26, Mean” value (V3 (day 28)) was 2.15 and the “General Questionnaire Sleep Q27, Mean” value (V3 (day 28)) was 2.07. The “General Questionnaire Sleep Q28, Mean” value (V3 (day 28)) was 2.78, the “General Questionnaire Sleep Q29, Mean” value (V3 (day 28)) was 2.19 and the “General Questionnaire Sleep Q30, Mean” value (V3 (day 28)) was 1.96. For the same compound, the “General Questionnaire Sleep Q31, Mean” value (V3 (day 28)) was 1.93, the “General Questionnaire Sleep Q32, Mean” value (V3 (day 28)) was 3.56 and the “General Questionnaire Sleep Total, Mean” value (V3 (day 28)) was 18.96. For the same compound, the “General Questionnaire Vision Q1, Mean” value (V3 (day 28)) was 2.33.
